The values below are quoted from earlier work in publication PMC6476928 (Frontiers in Pharmacology, 2019).

What is called IC50 is the concentration that inhibits the measured activity by half. A word on the inhibition: it is the change of the read-out against control, counted positive when it falls.

For one series, the target named is T1, Kv4.2 (Homo sapiens, UniProt Q9NZV8).
T1 sequence (Q9NZV8 1-630): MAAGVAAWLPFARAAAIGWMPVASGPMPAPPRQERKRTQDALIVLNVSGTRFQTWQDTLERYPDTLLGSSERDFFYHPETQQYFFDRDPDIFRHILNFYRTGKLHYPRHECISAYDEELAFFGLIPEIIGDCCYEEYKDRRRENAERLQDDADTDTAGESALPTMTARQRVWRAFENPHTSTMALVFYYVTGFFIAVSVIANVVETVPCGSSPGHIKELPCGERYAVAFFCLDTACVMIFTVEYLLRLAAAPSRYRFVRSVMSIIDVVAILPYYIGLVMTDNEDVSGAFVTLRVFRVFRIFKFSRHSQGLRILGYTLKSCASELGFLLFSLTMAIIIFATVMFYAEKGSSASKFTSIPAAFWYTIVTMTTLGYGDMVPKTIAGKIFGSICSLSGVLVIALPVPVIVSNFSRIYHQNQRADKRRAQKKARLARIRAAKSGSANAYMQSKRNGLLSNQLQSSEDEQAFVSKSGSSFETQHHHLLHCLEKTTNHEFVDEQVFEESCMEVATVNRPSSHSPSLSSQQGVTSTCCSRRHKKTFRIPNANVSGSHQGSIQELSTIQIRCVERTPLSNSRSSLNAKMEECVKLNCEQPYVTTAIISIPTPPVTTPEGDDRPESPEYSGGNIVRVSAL
T1 sequence (Q9NS61 1-270 partner): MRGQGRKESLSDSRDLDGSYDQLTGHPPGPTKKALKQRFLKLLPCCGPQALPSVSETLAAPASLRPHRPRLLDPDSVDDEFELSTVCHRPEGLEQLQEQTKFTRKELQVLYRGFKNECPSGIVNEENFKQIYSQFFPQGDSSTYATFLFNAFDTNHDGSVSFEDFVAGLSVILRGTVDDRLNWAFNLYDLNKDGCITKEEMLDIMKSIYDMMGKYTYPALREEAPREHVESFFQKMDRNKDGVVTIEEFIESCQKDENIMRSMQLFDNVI
The following applies: X. laevis oocytes, cited from earlier work. The text has this:
(§1) Supplement Data_Sheet_1.docx, table 1: Supplementary Table 1.Activity of spider toxins on Kv2 and Kv4 channel subtypes Activities of spider toxins against different subtypes of Kv2 and Kv4 potassium channels are reported as IC50 (nanomolar) or as percentage of current inhibition at a single dose (nanomolar). Affinity (IC50) measurements | column: kv4.2 || Animal toxins target ion channels, and are thus valuable resources with potential therapeutic applications. The Kv4 subfamily from scorpion ([Maffie et al., 2013]; [Xie et al., 2014]) and spider venom ([Escoubas et al., 2002]; [Ebbinghaus et al., 2004]; [Yuan et al., 2007], [2012]; [DeSimone et al., 2009]) has a rich toxin pharmacology. HaTx, originally isolated from venom of the Chilean rose tarantula (Grammostola spatulata), inhibits Kv4.2 channels effectively, with similar affinity for Kv2.1 ([Swartz and MacKinnon, 1995]; [Swartz, 2007]). Other Kv4 channel inhibitors, Stromatoxin (ScTx1) fr ...

A further series deals with kv4.1. Particulars: X. laevis oocytes; cited from earlier work. The text has this:
Supplement Data_Sheet_1.docx, table 1: Supplementary Table 1.Activity of spider toxins on Kv2 and Kv4 channel subtypes Activities of spider toxins against different subtypes of Kv2 and Kv4 potassium channels are reported as IC50 (nanomolar) or as percentage of current inhibition at a single dose (nanomolar). Affinity (IC50) measurements | column: kv4.1

The subject of a further series is kv2.1. The following applies: X. laevis oocytes, Hill relation nH = 1; cited from earlier work.
Text: as §1, with “kv2.1” for “kv4.2”

Take Stromatoxin [ScTx1, reference compound]: the IC50 on Kv4.2 (Hill relation nH = 1) is 1.2 nM. Further, the “activity on kv4.1” value in the series on kv4.1 is “No O”.

As for hanatoxin [HaTx1, reference compound], the inhibition on Kv4.2 (500nM, read-out: percentage of current inhibition kv4.2) is 70%. Further, the IC50 in the series with kv2.1 is 42 nM.
